Experimental data as given in the supplement of paper PMC10307832.

Experiments:
Assay in all cases: relative viability (nuclei count vs DMSO), 5 days (fraction); higher = more cells survive
[1] = compound: CC(=O)Nc1cccc(-n2c(=O)n(C3CC3)c(=O)c3c(Nc4ccc(I)cc4F)n(C)c(=O)c(C)c32)c1 [Trametinib] + CS(=O)(=O)N1CCN(Cc2cc3nc(-c4cccc5[nH]ncc45)nc(N4CCOCC4)c3s2)CC1 [Pictilisib] (partner 1 µM)
Summary of the method: (§1)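 After 5 days of treatment, lung cancer cells in 1536-well plates were fixed and stained in a single step (final 0.05% Triton X-100, 1% formaldehyde, 1 ug/ml Hoechst) and their nuclei counted on 4× images. Treatment had been applied by pin tool the day after seeding as one drug alone or as a fixed anchor-drug dose with five library-drug doses (not always all listed) in √10 steps. Relative viability is the nuclei count of treated wells divided by that of vehicle wells, and values are medians of duplicate plates.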

[2] = compound: CC(=O)Nc1cccc(-n2c(=O)n(C3CC3)c(=O)c3c(Nc4ccc(I)cc4F)n(C)c(=O)c(C)c32)c1 [Trametinib] + C[C@]1(O)C[C@@H](c2nc(-c3ccc4ccc(-c5ccccc5)nc4c3)c3c(N)nccn32)C1 [Linsitinib] (partner 1 µM)
Summary of the method: as §1

[3] = compound: CN1C=C(C2=CC=CC=C21)/C=C\3/C4=C(C=CC=N4)NC3=O + COc1cccc2cc(-c3nc([C@H]4CC[C@H](C(=O)O)CC4)n4ncnc(N)c34)[nH]c12 [OSI-027] (partner 0.5 µM)
Summary of the method: as §1

[4] = compound: CN1C=C(C2=CC=CC=C21)/C=C\3/C4=C(C=CC=N4)NC3=O + Nc1ncn([C@H]2C[C@H](O)[C@@H](CO)O2)c(=O)n1 [Decitabine] (partner 2 µM)
Summary of the method: as §1

Cell Line | relative viability ([1]; first compound 0.0025 µM) | relative viability ([1]; first compound 0.007906 µM) | relative viability ([1]; first compound 0.025 µM) | relative viability ([1]; first compound 0.07906 µM) | relative viability ([1]; first compound 0.25 µM) | relative viability ([2]; first compound 0.0025 µM) | relative viability ([2]; first compound 0.007906 µM) | relative viability ([2]; first compound 0.025 µM) | relative viability ([2]; first compound 0.07906 µM) | relative viability ([2]; first compound 0.25 µM) | relative viability ([3]; first compound 0.02 µM) | relative viability ([3]; first compound 0.06325 µM) | relative viability ([3]; first compound 0.2 µM) | relative viability ([3]; first compound 2 µM) | relative viability ([4]; first compound 0.02 µM) | relative viability ([4]; first compound 0.06325 µM) | relative viability ([4]; first compound 0.2 µM) | relative viability ([4]; first compound 0.6325 µM) | relative viability ([4]; first compound 2 µM) | relative viability ([3]; first compound 0.6325 µM)
NCI-H1792 | 0.227 | 0.183 | 0.182 | 0.152 | 0.104 | 0.489 | 0.39 | 0.363 | 0.234 | 0.164 | 0.72 | 0.71 | 0.768 | 0.464 | 0.439 | 0.648 | 0.645 | 0.497 | 0.511 | 
NCI-H1651 | 0.5 | 0.488 | 0.406 | 0.49 | 0.389 | 0.969 | 0.763 | 0.888 | 0.835 | 0.659 | 0.615 | 0.724 | 0.65 | 0.733 | 0.649 | 0.613 | 0.5 | 0.643 | 0.578 | 0.66
A549 | 0.375 | 0.237 | 0.179 | 0.121 | 0.072 | 0.461 | 0.387 | 0.203 | 0.231 | 0.0933 |  |  |  |  | 0.332 | 0.207 | 0.133 | 0.225 | 0.324 | 
HCC-366 | 0.09 | 0.138 | 0.102 | 0.1 | 0.0818 | 0.538 | 0.288 | 0.196 | 0.133 | 0.116 | 0.678 | 0.89 | 0.52 | 0.75 | 0.304 | 0.335 | 0.349 | 0.369 | 0.342 | 0.852
EKVX | 0.363 | 0.318 | 0.228 | 0.214 | 0.193 | 0.875 | 0.757 | 0.767 | 0.632 | 0.282 | 0.589 | 0.434 | 0.855 | 0.627 | 0.291 |  |  | 0.303 | 0.301 | 0.682
NCI-H1993 | 0.864 | 0.913 | 0.792 | 0.806 | 0.897 | 0.774 | 0.752 | 0.719 | 0.723 | 0.745 | 0.454 | 0.515 | 0.587 | 0.577 | 0.532 | 0.589 | 1.3 | 0.578 | 0.529 | 0.571
NCI-H522 |  |  |  |  |  |  |  |  |  |  | 0.648 | 0.743 | 0.761 | 0.835 | 0.598 | 0.644 | 0.716 | 0.637 | 0.695 | 0.75
NCI-H1703 | 0.23 | 0.224 | 0.206 | 0.269 | 0.258 | 0.692 | 0.821 | 0.674 | 0.72 | 0.352 |  |  |  |  |  |  |  |  |  | 
NCI-H23 | 0.348 | 0.357 | 0.217 | 0.27 | 0.189 | 0.438 | 0.356 | 0.277 | 0.313 | 0.226 | 0.497 | 0.555 | 0.459 | 0.517 | 0.321 | 0.295 | 0.306 | 0.336 | 0.347 | 0.538
HCC-827 | 0.949 | 0.986 | 0.959 | 0.666 | 0.627 | 0.958 | 0.893 | 0.944 | 0.886 | 0.753 | 0.771 | 0.662 |  | 0.721 | 0.315 | 0.297 |  | 0.327 | 0.297 | 0.804
PC-3 [JPC-3] | 0.765 | 0.474 | 0.484 | 0.438 | 0.44 | 0.98 | 0.854 | 0.854 | 0.797 | 0.624 | 0.698 | 0.487 | 0.747 | 0.694 | 0.863 | 0.777 | 0.863 | 0.786 | 0.812 | 0.703
IA-LM | 0.142 | 0.091 | 0.073 | 0.0818 | 0.0673 | 0.574 | 0.553 | 0.142 | 0.218 | 0.145 |  |  |  |  |  |  |  |  |  | 
SW 900 |  |  |  |  |  |  |  |  |  |  | 0.601 | 0.49 |  | 0.703 | 0.366 |  |  | 0.433 | 0.483 | 0.6
NCI-H1648 |  |  |  |  |  |  |  |  |  |  |  | 0.239 | 0.259 | 0.281 | 0.5 | 0.453 | 0.496 | 0.448 | 0.327 | 0.258
NCI-H1563 | 0.624 | 0.72 | 0.652 | 0.572 | 0.536 | 1.22 | 1.08 | 1.1 | 1.12 | 0.808 | 0.741 | 0.75 | 0.743 | 0.75 |  |  |  |  |  | 0.778
NCI-H2342 |  |  |  |  |  |  |  |  |  |  | 0.617 | 0.616 | 0.596 | 0.65 | 0.685 | 0.702 | 0.674 | 0.693 | 0.623 | 0.535
ChaGo-K-1 | 0.841 | 0.47 | 0.694 | 0.261 | 0.461 |  |  |  |  |  | 0.56 | 0.672 | 0.339 | 0.609 | 0.519 | 0.515 | 0.5 | 0.534 | 0.476 | 0.613
NCI-H2170 | 0.281 | 0.276 |  | 0.238 | 0.249 |  |  |  |  |  | 0.718 | 0.69 | 0.55 | 0.668 | 0.481 | 0.487 | 0.458 | 0.447 | 0.411 | 0.764
Calu-6 | 0.739 | 0.45 | 0.193 | 0.136 | 0.121 | 0.951 | 0.719 | 0.35 | 0.15 | 0.124 |  |  |  |  |  |  |  |  |  | 
NCI-H1299 | 0.475 | 0.47 | 0.32 | 0.0746 | 0.157 | 0.955 | 0.953 | 0.9 | 0.726 | 0.386 |  |  |  |  |  |  |  |  |  | 
NCI-H2228 | 0.281 | 0.232 | 0.184 | 0.171 | 0.199 | 0.582 | 0.764 | 0.646 | 0.472 | 0.396 | 0.576 | 0.452 |  | 0.462 |  |  |  |  |  | 
EBC-1 | 0.244 | 0.204 | 0.134 | 0.137 | 0.168 | 1 | 1.15 | 0.456 | 0.407 | 0.189 |  |  |  |  |  |  |  |  |  | 
